From patent US9611223B2, “3-aryl-5-substituted-isoquinolin-1-one compounds and their therapeutic use” (INSTITUTE OF CANCER RESEARCH: ROYAL CANCER HOSPITAL (THE), priority 2013, dated 2017) come the findings set out here.

Where two headings read alike, the source gives them in different places.

Holding throughout (format): cell-based
One assay concerns DLD1 cells. The experiment in a line: Long-Term Clonogenic Assay (DLD1 cells). The conditions noted are these: Homo sapiens, DLD-1, 12-14 days, read-out: cell inhibitory SF50 (DLD1). As for the experimental part: Clonogenic Inhibition in DLD1 or HT55 Cells
In order to determine the efficacy of chronic dosing of putative TNKS inhibitors, long term clonogenic or ‘colony formation’ assays were carried out. This included the sparse seeding of cells in a 6-well dish followed by continuous dosing of cells over 12-14 days (depending on relative cell growth). Appropriate cell lines (DLD1 or HT55) were seeded at 500 cells/well in a 6-well dish in DMEM supplemented with FBS. After overnight incubation, cells were treated with the appropriate putative TNKS inhibitor at 10 μM, 3 μM, 1 μM, 0.30 μM, 0.1 μM and 0 μM at 0.2-1% final DMSO concentration (cell line dependent) in DMEM supplemented with 10% FBS (DLD1 cells were dosed in DMEM supplemented with 0.5% FBS). Dosages were carried out in triplicate. Cell media containing compound or DMSO only was replenished every 48 hours. On termination of the assay, plates were read with Cell Titre Glo reagent and luminescence measured on an appropriate plate reader.
The data was normalised to the DMSO control and was expressed as surviving fraction as a function of inhibitor dose. Dose response curves used to determine SF50 values were Log transformed and analysed by non-linear regression analysis (variable slope) using Prism (GraphPad Software, Inc).

The next assay concerns Wnt signalling. Description: Wnt-Luciferase Reporter Assay. The settings on record: DLD1-Wnt-Luc cells, 20-22 hours. On the procedure: Wnt-Luciferase Reporter Assay
A Wnt dependent cell line (i.e., DLD1 colorectal adenocarcinoma cell line) was transduced with replication incompetent VSV-g pseudotyped lentiviral particles expressing the firefly luciferase gene under the control of minimal cytomegalovirus (mCMV) promoter and tandem repeats of the TCF/LEF transcriptional response element.
DLD1-Wnt-Luc cells were seeded (5000 cells/well) in a 96-well plate (Greiner Bio-One, cat. no. 655098) in Dubelco's Modified Eagle Medium (DMEM, SFBCO/Invitrogen, cat no. 41965-039) supplemented with Fetal Bovine Serum (FBS, 10%, SFBCO/Invitrogen, cat no. 10108-165). After overnight incubation, the media was replaced with OptiMEM (SFBCO/Invitrogen, cat no. 11058-021) supplemented with FBS (0.5%) and non-essential amino acids (1%, SFBCO/Invitrogen, cat no. 11140-035) and the appropriate putative TNKS inhibitor at a final concentration of 10 μM, 3 μM, 1 μM, 0.30 μM, 0.10 μM, 0.030 μM, 0.010 μM and 0 μM with 1% (v/v) final DMSO in double-triplicate wells. Positive control includes the use of XAV-939 (Maybridge, FisherScientific, 3,5,7,8-tetrahydro-2-[4-(trifluoromethyl)phenyl]-4H-thiopyrano[4,3-d]pyrimidin-4-one, cat. no. RF03920, see: Huang et al., Nature, 2009, Vol. 461, pp. 614-620). Cells were incubated for 20-22 hours before assaying for luciferase (first set of triplicates: Wnt activation) and viability (second set of triplicates: cell survival for data normalisation vs Wnt-activation) using ONE-Glo (Promega, cat. no. E6110) and CellTiter-Glo (Promega, cat. no. G7570) reagents consecutively. The assay was measured using a Victor^2 plate reader. The data were normalised to the DMSO control and were expressed as % Wnt activity as a function of inhibitor dose. Dose response curves used to determine IC50 values were Log transformed and analysed by non-linear regression analysis (variable slope) using Prism (GraphPad Software, Inc).

The subject of another assay is HT55 cells. Description: Tumour Cell Inhibition Assay (HT55 cells). The conditions noted are these: Homo sapiens, HT55, 120 h, Tumour Cell Inhibition Assay, five day exposure. On the procedure: (§1) Tumour Cell Inhibition in Colorectal Tumour Cells
(§2) In order to determine the efficacy of acute dosing of putative TNKS inhibitors, five day exposure cell viability assays were carried out. This included the sparse seeding of cells in a 96-well plate followed by continuous dosing of cells over a five day period.
(§3) Appropriate cell lines (HT55, COLO320DM and SW620) were seeded at 500 cells/well in a 96-well plate in MEM (HT55), RPMI (COLO320DM) or DMEM (SW620) supplemented with FBS. After overnight incubation, cells were treated with the appropriate putative TNKS inhibitor in 6 or 10 concentrations ranging from 0 μM to 10 μM at 0.2% final DMSO concentration in appropriate media supplemented with 10% or 0.5% FBS. Dosages were carried out in triplicate. Termination of the assay and measurement of cell viability was achieved by the use of Cell Titre Glo reagent and luminescence measurement on an appropriate plate reader.
(§4) Dose response curves used to determine SF50 values were Log transformed and analysed by non-linear regression analysis (variable slope) using Prism (GraphPad Software, Inc).

Another assay concerns SW620 cells. Description: Tumour Cell Inhibition Assay (SW620 cells). The conditions noted are these: Homo sapiens, SW-620, 120 h, five day exposure. On the procedure:
as §1, §2, §3, §4

As to `CN1CCN(Cc2ccc(-c3cc4c(C#N)cccc4c(=O)[nH]3)cc2)CC1` [IQ-002, 3-[4-(4-Methyl-piperazin-1-ylmethyl)-phenyl]-1-oxo-1,2-dihydro-isoquinoline-5-carbonitrile], the IC50 in the assay on DLD1 cells was 2300 nM; with Wnt signalling, less than 300 nM.
In the case of `CN(C)C1CCN(Cc2ccc(-c3cc4c(C#N)cccc4c(=O)[nH]3)cc2)C1` (stereo not drawn) [IQ-011], the IC50 with Wnt signalling was less than 300 nM; in the assay with HT55 cells (read-out: cell inhibitory SF50 (HT55)) it was less than 5000 nM.
In the case of `CN(C)C1CCN(Cc2ccc(-c3cc4c(C#N)cccc4c(=O)[nH]3)cc2)CC1` [IQ-012], the IC50 with SW620 cells (read-out: cell inhibitory SF50 (SW620)) is 3000 nM; with SW620 cells (replicate, read-out: cell inhibitory SF50 (SW620), replicate) it was 1700 nM; in the assay with Wnt signalling, less than 300 nM; in the assay on HT55 cells (replicate, read-out: cell inhibitory SF50 (HT55), replicate), 1800 nM.
`CN1CCN(Cc2ccc(-c3cc4c(C#N)cc(F)cc4c(=O)[nH]3)cc2)CC1` [IQ-014] gave an IC50 with Wnt signalling of less than 300 nM.
